Patent US20230202975A1 (Recordati Industria Chimica e Farmaceutica S.p.A., priority 2021, published 2023)

Legend:
Format in all cases: physicochemical
[1] = Bulk density and tapped density (Ph. Eur. 2.9.34), Hausner ratio; details: average of three samples, after drying under vacuum
Experimental: Bulk density and Tapped density: were measured according to the method of pharmacopoeia (Ph. Eur. 2.9.34). 100 g of sample was weighed and then placed in the test tube, noting the apparent volume without any type of treatment to the sample. Afterwards, 10, 500 and 1250 taps are made using the automatic volumeter (Model: Schleuniger JV2000, Equipment code: CE9), noting the apparent volumes obtained in these three tests. In the event that the difference between the volume obtained for the 500 and 1250 taps was greater than 2 ml, the operation was repeated in increments of 1250 taps until the difference within measurements is less than or equal to 2 ml. For each batch the test was carried out in duplicate.
The bulk density and tapped density were calculated according to the following equations: […]
where m is the amount of sample weighed expressed in grams and V0 is the apparent uncompacted volume expressed in milliliters. Tapped density:
Another parameter relevant for evaluating powder flowability is the Hausner ratio namely the ratio between tapped and bulk densities. Generally, a Hausner ratio of higher than 1.50 indicates a very poor flowability (Powder properties in food production systems, Handbook of Food Powders, Ed.: Bhesh Bhandari, Nidhi Bansal, Min Zhang, Pierre Schuck, Woodhead Publishing, 2013, chapter 12, page 298).

[2] = pH of aqueous solution (potentiometric); details: 100 mg of sample dissolved in 10 ml of water
Experimental: Keys: ^1 pH was determined potentiometncally on a solution of 100 mg of sample dissolved in 10 ml of water; HPLC purity is expressed as area percentage (area of the peak/total area×100); DMT: 2,2-dimethylthiazolidine.

[3] = Particle size distribution (laser particle size analyser, Ph. Eur. 2.9.31)
Experimental: Particle size distribution was evaluated in line with European Pharmacopeia 2.9.31 with the instrument and according to sample preparation and test conditions reported in the following Table 3: […]

## NCCS.O=C(O)C(O)C(O)C(=O)O (stereo not shown) [Example 10B, Cysteamine Bitartrate, reference compound]
[1]; listed as Cysteamine Bitartrate crystallized according to the prior art process (direct ad)
  Bulk density: 0.279 g/mL
[1]; listed as Ex. 10B
  Bulk density: 0.279 g/mL
  Tapped density: 0.442 g/mL

## Cysteamine Bitartrate [Example 2]
[2]
  pH: 3.53

## NCCS.O=C(O)C(O)C(O)C(=O)O (stereo not shown) [Example C2, Cysteamine Bitartrate]
[3]
  Particle Size, compliance with specification D50 <150 mic: ~55%
  Particle Size, compliance with specification D90 <450 mic: (100%)

## NCCS.O=C(O)C(O)C(O)C(=O)O (stereo not shown) [Example 10A, Cysteamine Bitartrate]
[1]; listed as Cysteamine Bitartrate crystallized according to the process of the present inven
  Bulk density: 0.301 g/mL
[1]; listed as Ex. 10A
  Bulk density: 0.301 g/mL
  Tapped density: 0.423 g/mL

## NCCS.O=C(O)C(O)C(O)C(=O)O (stereo not shown) [Example C1, Cysteamine Bitartrate]
[3]
  Particle Size, compliance with specification D50 <150 mic: ~65%
  Particle Size, compliance with specification D90 <450 mic: (100%)

## NCCS.O=C(O)C(O)C(O)C(=O)O (stereo not shown) [Example R2, Cysteamine Bitartrate]
[3]
  Particle Size, compliance with specification D50 <150 mic: (100%)
  Particle Size, compliance with specification D90 <450 mic: (100%)

## NCCS.O=C(O)C(O)C(O)C(=O)O (stereo not shown) [Example C3, Cysteamine Bitartrate]
[3]
  Particle Size, compliance with specification D50 <150 mic: ~53%
  Particle Size, compliance with specification D90 <450 mic: (100%)

## NCCS.O=C(O)C(O)C(O)C(=O)O (stereo not shown) [Example R1, Cysteamine Bitartrate]
[3]
  Particle Size, compliance with specification D50 <150 mic: (100%)
  Particle Size, compliance with specification D90 <450 mic: (100%)

## NCCS.O=C(O)C(O)C(O)C(=O)O (stereo not shown) [Example R3, Cysteamine Bitartrate]
[3]
  Particle Size, compliance with specification D50 <150 mic: (100%)
  Particle Size, compliance with specification D90 <450 mic: (100%)
